Measurements reported in ChEMBL document CHEMBL3988442, “University of Dundee, Small-Polar-MMV Screening Library” (2021).
Where “and” joins values, the source holds several entries; their conditions need not be identical. Equal values may be shown once.

Tests used:
[1] = biological target: Protein translocase subunit SecA (Escherichia coli (strain K12), UniProt P10408); experiment: Assay to Identify E. coli SecA ATPase Inhibitors; assay type: functional
Shiga toxin 2 = biological target: T1, Shiga toxin 2 (Escherichia coli O157:H7, UniProt P09385+P09386); experiment: E. coli 0.157:H7 Shiga Toxin SOP - stx2 screening assay; assay type: functional
T1 sequence (P09385 whole entry): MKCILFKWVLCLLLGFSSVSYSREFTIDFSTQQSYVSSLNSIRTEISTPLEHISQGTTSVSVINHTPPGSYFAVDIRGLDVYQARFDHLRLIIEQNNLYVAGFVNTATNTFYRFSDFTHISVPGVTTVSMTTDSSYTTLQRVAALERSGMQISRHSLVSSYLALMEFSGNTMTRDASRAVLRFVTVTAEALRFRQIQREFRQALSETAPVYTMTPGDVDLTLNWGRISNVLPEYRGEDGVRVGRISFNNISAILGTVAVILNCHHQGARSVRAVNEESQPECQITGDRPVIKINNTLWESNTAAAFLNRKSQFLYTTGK
T1 sequence (P09386 whole entry): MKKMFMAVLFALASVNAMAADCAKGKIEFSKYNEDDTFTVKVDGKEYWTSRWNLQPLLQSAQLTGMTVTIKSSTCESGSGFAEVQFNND

[2] = microbe, parasite or virus in culture; details: Mycobacterium tuberculosis, 96 h, read-out: pIC50 (converted)
[3] = microbe, parasite or virus in culture; details: Mycobacterium tuberculosis, 72 h, read-out: pIC50 (converted)

Chain of Protein translocase subunit SecA (P10408 whole entry): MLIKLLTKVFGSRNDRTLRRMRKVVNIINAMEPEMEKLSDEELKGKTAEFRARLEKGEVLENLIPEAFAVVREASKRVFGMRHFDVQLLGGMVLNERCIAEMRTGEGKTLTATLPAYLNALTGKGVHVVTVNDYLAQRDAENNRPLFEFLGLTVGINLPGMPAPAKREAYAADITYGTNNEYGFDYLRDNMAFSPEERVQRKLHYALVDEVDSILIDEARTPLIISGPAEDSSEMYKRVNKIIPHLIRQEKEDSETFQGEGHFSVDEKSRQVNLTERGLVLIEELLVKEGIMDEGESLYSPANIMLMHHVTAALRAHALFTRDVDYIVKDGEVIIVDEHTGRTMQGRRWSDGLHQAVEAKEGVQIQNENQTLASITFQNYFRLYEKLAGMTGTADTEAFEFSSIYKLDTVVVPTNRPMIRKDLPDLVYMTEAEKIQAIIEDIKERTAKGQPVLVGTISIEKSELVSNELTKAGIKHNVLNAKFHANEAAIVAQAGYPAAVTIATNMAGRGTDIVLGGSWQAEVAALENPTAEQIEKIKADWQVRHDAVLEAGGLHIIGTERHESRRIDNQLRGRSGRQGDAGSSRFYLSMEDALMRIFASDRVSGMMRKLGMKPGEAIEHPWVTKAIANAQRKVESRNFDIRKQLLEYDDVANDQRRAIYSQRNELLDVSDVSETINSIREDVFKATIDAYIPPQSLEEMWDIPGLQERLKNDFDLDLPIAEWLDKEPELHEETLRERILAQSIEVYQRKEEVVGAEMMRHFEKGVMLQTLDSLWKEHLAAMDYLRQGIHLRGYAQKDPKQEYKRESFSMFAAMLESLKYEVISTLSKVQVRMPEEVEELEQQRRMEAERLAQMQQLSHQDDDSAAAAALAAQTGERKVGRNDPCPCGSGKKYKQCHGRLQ

SMILES: COCc1c(C(=O)NC2CCCC2)nnn1-c1ccc(C)cc1
- IC50 [1]: > 100 µM

SMILES: CCCc1c(C(=O)NC2CCCC2)nnn1-c1ccc(OC)cc1
- IC50 [1]: > 100 µM

SMILES: CC(C)c1cc(C(F)(F)F)n2nc(CCC(=O)O)nc2n1
- IC50 (Shiga toxin 2): > 100 µM

SMILES: CCn1cc(CN(C)S(=O)(=O)c2cnn(CC)c2C)c(C)n1
- IC50 [1]: > 100 µM

SMILES: O=S(=O)(c1ccccc1)N1CCCCC1c1cc[nH]n1 (stereo unspecified)
- IC50 (Shiga toxin 2): > 100 µM

SMILES: Cc1nc(C(=O)N2CCC(Cc3cnc4[nH]ccc4c3)C2)co1 (stereo unspecified)
- IC50 (Shiga toxin 2): > 100 µM

SMILES: NCc1cn(-c2ccccc2C(=O)NCc2cccc(Cl)c2)cn1
- IC50 (Shiga toxin 2): > 100 µM

SMILES: Cc1cc(-c2cnn(CCNC(=O)C3CC3)c2C2CC2)on1
- IC50 (Shiga toxin 2): > 100 µM

SMILES: O=C1CN(Cc2ccc(-c3ccccc3C(=O)O)cc2)CCN1
- IC50 (Shiga toxin 2): > 100 µM

SMILES: Cn1cc(C(=O)N2CCC(Cc3nccs3)CC2)cn1
- IC50 (Shiga toxin 2): > 100 µM

SMILES: Nc1cc(CCC2CN(Cc3ccc(C(=O)O)cc3)CCO2)ccn1 (stereo unspecified)
- IC50 (Shiga toxin 2): > 100 µM

SMILES: COc1ccccc1CC(=O)N1CC[C@@]2(CCCO2)[C@@H](OC)C1
- IC50 (Shiga toxin 2): > 100 µM

SMILES: Cc1nccn1-c1cccc(C2CCCN2S(=O)(=O)c2cn(C)cn2)n1 (stereo unspecified)
- IC50 (Shiga toxin 2): > 100 µM

SMILES: COc1ccc(C)cc1CN(C)Cc1nc2c(cnn2C)c(=O)[nH]1
- IC50 (Shiga toxin 2): > 100 µM

SMILES: CCOc1ccnc(N2CCN(C(=O)c3cccc(C#N)c3)CC2)n1
- IC50 (Shiga toxin 2): > 100 µM

SMILES: Cc1noc(NC(=O)c2ccc(Br)s2)n1
- IC50 (Shiga toxin 2): > 100 µM
- IC50 [2]: 42.5 µM
- IC50 [3]: 32.8 µM

SMILES: COCCN1CCN(CCS(=O)(=O)C(F)(F)F)CC1C (stereo unspecified)
- IC50 (Shiga toxin 2): 32.8 µM and 33 µM

SMILES: CC(C)(C)NC(=O)NC(=O)CNC(C)(C)c1ccc2c(c1)OCCO2
- IC50 (Shiga toxin 2): > 100 µM

SMILES: CCNC(=O)Nc1ccc2c(ccn2CC(=O)N(CC)CC)c1
- IC50 [1]: > 100 µM

SMILES: COc1c(CNC(c2ccc(F)cc2)C(C)(C)C)c(C)nn1C (stereo unspecified)
- IC50 (Shiga toxin 2): > 100 µM

SMILES: CN(Cc1ccsc1)C(=O)CS(=O)(=O)Cc1ccc(Cl)c(Cl)c1
- IC50 (Shiga toxin 2): > 100 µM

SMILES: CCOc1ccccc1C(=O)N1CCCC1c1ncc2c(n1)CCNC2 (stereo unspecified)
- IC50 (Shiga toxin 2): > 100 µM

SMILES: COc1ncc(C2(O)CCN(Cc3c(F)cccc3F)CC2)c(OC)n1
- IC50 (Shiga toxin 2): > 100 µM

SMILES: CCOC(=O)c1sc2ccsc2c1CN
- IC50 (Shiga toxin 2): > 100 µM
